Reference: patent EP2739618B1, “QUINAZOLINE COMPOUNDS AS SERINE/THREONINE KINASE INHIBITORS” (Array Biopharma, Inc., priority 2011, dated 2013)

Target: T1, human ERK-2 (Mitogen Activated Kinase 1) (Homo sapiens, UniProt P28482)
T1 construct: N-terminal 6-His fusion protein in E. coli and corresponding to aa 8-360; 6-His (N); made in house; host or cells: E. coli
Test: ERK-2 Enzymatic Assay
Assay type: biochemical
Conditions: TABLE I; 5nM ERK-2 enzyme, 25µM ATP, S/T17 peptide substrate; single assay or mean of multiple assays
Description: Compounds were tested in an enzymatic assay using human ERK-2 (Mitogen Activated Kinase 1), recombinantly expressed as an N-terminal 6-His fusion protein in E. coli and corresponding to aa 8-360. The substrate used was the fluorescent Omnia peptide S/T17 (Invitrogen of Carlsbad, CA; Cat. KNZ1171C). Test compounds were diluted in DMSO in 3-fold serial dilutions at 100x final concentrations. […] The assay was run at ambient temperature in a white 384-well polypropylene plate (Nunc, Inc of Naperville, IL; Cat. 267462) collecting data every 50 seconds for approximately 30 minutes on an Envision plate reader (PerkinElmer, Inc. of Waltham, MA); Excitation 340 nm/Emission 495 nm. The data collected from each well was fit to a straight line and the resulting rates were used to calculate percent of control. Percent of control was plotted against compound concentration and IC50 values were determined using a four-parameter fit. Representative data is in TABLE I and TABLE II. The reported IC50 may be from a single assay or the mean of multiple assays.

T1 sequence (P28482 8-360): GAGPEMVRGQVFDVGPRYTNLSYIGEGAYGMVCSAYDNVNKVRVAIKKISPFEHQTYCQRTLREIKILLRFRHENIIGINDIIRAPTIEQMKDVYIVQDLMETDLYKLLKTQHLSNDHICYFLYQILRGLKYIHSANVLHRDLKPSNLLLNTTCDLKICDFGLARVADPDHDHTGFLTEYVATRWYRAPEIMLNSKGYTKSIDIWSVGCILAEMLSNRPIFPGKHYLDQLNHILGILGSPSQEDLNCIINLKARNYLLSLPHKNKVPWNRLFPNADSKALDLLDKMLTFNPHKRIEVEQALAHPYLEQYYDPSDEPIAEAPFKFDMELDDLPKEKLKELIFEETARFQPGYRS

Molecule	IC50
2-(tetrahydro-pyran-4-ylamino)-quinazoline-7-carboxylic acid [(R)-(4-cyano-3-fluoro-phenyl)-(1-methyl-1H-pyrazol-4-yl)-methyl]-amide [Compound I-45]	22 nM
O=C(N[C@H](c1ccc(F)c(Cl)c1)[C@@H]1CCNC1)c1ccc2cnc(NC3CCOCC3)nc2c1 (stereo in doubt) [Compound I-9, 2-(tetrahydropyran-4-ylamino)-quinazoline-7-carboxylic acid [(R)-(3-chloro-4-fluoro-phenyl)-(S)-pyrrolidin-3-yl-methyl]-amide]	6.7 nM
O=C(N[C@@H](c1ccc(F)c(Cl)c1)[C@H]1CCNC1)c1ccc2cnc(NC3CCOCC3)nc2c1 (stereo in doubt) [Compound I-11, 2-(tetrahydropyran-4-ylamino)-quinazoline-7-carboxylic acid [(S)-(3-chloro-4-fluoro-phenyl)-(R)-pyrrolidin-3-yl-methyl]-amide]	6.4 nM
O=C(N[C@H](c1ccc(Cl)c(F)c1)[C@@H]1CCCN1)c1ccc2cnc(NC3CCOCC3)nc2c1 (stereo in doubt) [Compound I-23, 2-(tetrahydropyran-4-ylamino)-quinazoline-7-carboxylic acid [(S)-(4-chloro-3-fluoro-phenyl)-(R)-pyrrolidin-2-yl-methyl]-amide]	2.3 nM
COc1ccc([C@@H](NC(=O)c2ccc3cnc(NC4CCOCC4)nc3c2)[C@@H]2CCCN2)cc1F (stereo in doubt) [Compound I-24, 2-(tetrahydropyran-4-ylamino)-quinazoline-7-carboxylic acid [(S)-(3-fluoro-4-methoxy-phenyl)-(R)-pyrrolidin-2-yl-methyl]-amide]	8.2 nM
COc1ccc([C@@H](NC(=O)c2cc(F)c3cnc(NC4CCOCC4)nc3c2)[C@@H]2CCCN2)cc1F (stereo in doubt) [Compound I-25, 5-fluoro-2-(tetrahydropyran-4-ylamino)-quinazoline-7-carboxylic acid [(S)-(3-fluoro-4-methoxy-phenyl)-(R)-pyrrolidin-2-yl-methyl]-amide]	9 nM
Cn1cc([C@@H](NC(=O)c2ccc3cnc(NC4CCOCC4)nc3c2)c2ccc(C#N)c(Cl)c2)cn1 (stereo in doubt) [Compound I-50, (S)-N-((3-chloro-4-cyanophenyl)(1-methyl-1H-pyrazol-4-yl)methyl)-2-(tetrahydro-2H-pyran-4-ylamino)quinazoline-7-carboxamide]	25 nM
COc1ccc([C@H](NC(=O)c2cc(F)c3cnc(N[C@@H]4CCOC4)nc3c2)c2cnn(C)c2)cc1F (stereo in doubt) [Compound I-62, 5-Fluoro-N-((S)-(3-fluoro-4-methoxyphenyl)(1-methyl-1H-pyrazol-4-yl)methyl)-2-((R)-tetrahydrofuran-3-ylamino)quinazoline-7-carboxamide]	4 nM
Cn1ccc(C(NC(=O)c2ccc3cnc(NC4CCOCC4)nc3c2)c2ccc(Cl)c(F)c2)n1 (stereo not drawn) [Compound I-4, 2-(tetrahydropyran-4-ylamino)-quinazoline-7-carboxylic acid [(4-chloro-3-fluoro-phenyl)-(1-methyl-1H-pyrazol-3-yl)-methyl]-amide]	5 nM
O=C(N[C@@H](c1ccc(F)c(Cl)c1)[C@@H]1CCNC1)c1ccc2cnc(NC3CCOCC3)nc2c1 [Compound I-8, 2-(tetrahydropyran-4-ylamino)-quinazoline-7-carboxylic acid [(R)-(3-chloro-4-fluoro-phenyl)-(R)-pyrrolidin-3-yl-methyl]-amide]	6.7 nM
O=C(N[C@H](c1ccc(F)c(Cl)c1)[C@H]1CCNC1)c1ccc2cnc(NC3CCOCC3)nc2c1 [Compound I-10, 2-(tetrahydropyran-4-ylamino)-quinazoline-7-carboxylic acid [(S)-(3-chloro-4-fluoro-phenyl)-(S)-pyrrolidin-3-yl-methyl]-amide]	5.4 nM
CN1CCC[C@@H]1[C@@H](NC(=O)c1ccc2cnc(NC3CCOCC3)nc2c1)c1ccc(C(F)(F)F)c(F)c1 [Compound I-17, 2-(Tetrahydropyran-4-ylamino)-quinazoline-7-carboxylic acid [(S)-(3-fluoro-4-trifluoromethyl-phenyl)-((R)-1-methyl-pyrrolidin-2-yl)-methyl]-amide]	2.8 nM
CCn1ccc([C@H](NC(=O)c2ccc3cnc(NC4CCOCC4)nc3c2)c2ccc(Cl)c(F)c2)n1 [Compound I-18, 2-(tetrahydropyran-4-ylamino)-quinazoline-7-carboxylic acid [(R)-(4-chloro-3-fluoro-phenyl)-(1-ethyl-1H-pyrazol-3-yl)-methyl]-amide]	12.8 nM
Cn1ccc([C@H](NC(=O)c2ccc3cnc(NC4CCOCC4)nc3c2)c2ccc(Cl)c(F)c2)n1 [Compound I-21, 2-(tetrahydropyran-4-ylamino)-quinazoline-7-carboxylic acid [(R)-(4-chloro-3-fluoro-phenyl)-(1-methyl-1H-pyrazol-3-yl)-methyl]-amide]	69 nM
Cn1cc([C@@H](NC(=O)c2ccc3cnc(N[C@@H]4CCOC[C@@H]4F)nc3c2)c2ccc(Cl)c(F)c2)cn1 [Compound I-27, 2-((3R,4R)-3-fluoro-tetrahydropyran-4-ylamino)-quinazoline-7-carboxylic acid [(S)-(4-chloro-3-fluoro-phenyl)-(1-methyl-1H-pyrazol-4-yl)-methyl]-amide]	15.8 nM
Cn1cc([C@@H](NC(=O)c2ccc3cnc(N[C@H]4CCOC[C@@H]4F)nc3c2)c2ccc(Cl)c(F)c2)cn1 [Compound I-29, 2-((3R,4S)-3-fluoro-tetrahydropyran-4-ylamino)-quinazoline-7-carboxylic acid [(S)-(4-chloro-3-fluoro-phenyl)-(1-methyl-1H-pyrazol-4-yl)-methyl]-amide]	3.8 nM
O=C(N[C@H](c1ccc(F)c(Cl)c1)[C@@]1(F)CCNC1)c1ccc2cnc(NC3CCOCC3)nc2c1 [Compound I-37]	73.6 nM
O=C(N[C@H](c1ccc(F)c(Cl)c1)[C@]1(F)CCNC1)c1ccc2cnc(NC3CCOCC3)nc2c1 [Compound I-38]	65.4 nM

The next molecules have a lower IC50 than those just listed; values first:

IC50	Molecule
1.8 nM	O=C(N[C@H](c1ccc(C(F)(F)F)c(F)c1)[C@@H]1CCCN1)c1ccc2cnc(NC3CCOCC3)nc2c1 (stereo in doubt) [Compound I-7, 2-(tetrahydropyran-4-ylamino)-quinazoline-7-carboxylic acid [(S)-(3-fluoro-4-trifluoromethyl-phenyl)-(R)-pyrrolidin-2-yl-methyl]-amide]
2 nM	COc1ccc([C@@H](NC(=O)c2ccc3cnc(N[C@H](C)C4CC4)nc3c2)[C@@H]2CCCN2)cc1F (stereo in doubt) [Compound I-26, 2-((R)-1-cyclopropyl-ethylamino)-quinazoline-7-carboxylic acid [(S)-(3-fluoro-4-methoxy-phenyl)-(R)-pyrrolidin-2-yl-methyl]-amide]
1.1 nM	Cn1cc([C@H](NC(=O)c2ccc3cnc(NC4CCOCC4)nc3c2)c2ccc(C#N)c(Cl)c2)cn1 (stereo in doubt) [Compound I-48, (R)-N-((3-chloro-4-cyanophenyl)(1-methyl-1H-pyrazol-4-yl)methyl)-2-(tetrahydro-2H-pyran-4-ylamino)quinazoline-7-carboxamide]
2 nM	Cn1ccc([C@@H](NC(=O)c2ccc3cnc(NC4CCOCC4)nc3c2)c2ccc(Cl)c(F)c2)n1 [Compound I-20, 2-(tetrahydropyran-4-ylamino)-quinazoline-7-carboxylic acid [(S)-(4-chloro-3-fluoro-phenyl)-(1-methyl-1H-pyrazol-3-yl)-methyl]-amide]
2.1 nM	Cn1cc([C@@H](NC(=O)c2ccc3cnc(N[C@@H]4CCOC[C@H]4F)nc3c2)c2ccc(Cl)c(F)c2)cn1 [Compound I-30, 2-((3S,4R)-3-fluoro-tetrahydropyran-4-ylamino)-quinazoline-7-carboxylic acid [(S)-(4-chloro-3-fluoro-phenyl)-(1-methyl-1H-pyrazol-4-yl)-methyl]-amide]
1.7 nM	COc1ccc([C@H](NC(=O)c2ccc3cnc(NC4CCOCC4)nc3c2)[C@H]2C[C@H](F)CN2)cc1F [Compound I-31, 2-(tetrahydropyran-4-ylamino)-quinazoline-7-carboxylic acid [(S)-(3-fluoro-4-methoxy-phenyl)-((2R,4S)-4-fluoro-pyrrolidin-2-yl)-methyl]-amide]
1.1 nM	COc1ccc([C@H](NC(=O)c2ccc3cnc(NC4CCOCC4)nc3c2)c2cnn(C)c2)cc1F [Compound I-32, 2-(tetrahydropyran-4-ylamino)-quinazoline-7-carboxylic acid [(S)-(3-fluoro-4-methoxy-phenyl)-(1-methyl-1H-pyrazol-4-yl)-methyl]-amide]
1.5 nM	COc1ccc([C@H](NC(=O)c2cc(F)c3cnc(NC4CCOCC4)nc3c2)c2cnn(C)c2)cc1F [Compound I-33, 5-fluoro-2-(tetrahydropyran-4-ylamino)-quinazoline-7-carboxylic acid [(S)-(3-fluoro-4-methoxy-phenyl)-(1-methyl-1H-pyrazol-4-yl)-methyl] -amide]
1.6 nM	O=C(N[C@@H](c1ccc(F)c(Cl)c1)[C@]1(F)CCNC1)c1ccc2cnc(NC3CCOCC3)nc2c1 [Compound I-36]
